Reference: ChEMBL document CHEMBL1201862, “PubChem BioAssay data set” (2004)
Active and inactive are the calls of the source.

What was measured:
Protein skinhead-1 = molecular target: T1, Protein skinhead-1 (Caenorhabditis elegans, UniProt P34707); assay type: functional
T1 sequence (P34707 whole entry): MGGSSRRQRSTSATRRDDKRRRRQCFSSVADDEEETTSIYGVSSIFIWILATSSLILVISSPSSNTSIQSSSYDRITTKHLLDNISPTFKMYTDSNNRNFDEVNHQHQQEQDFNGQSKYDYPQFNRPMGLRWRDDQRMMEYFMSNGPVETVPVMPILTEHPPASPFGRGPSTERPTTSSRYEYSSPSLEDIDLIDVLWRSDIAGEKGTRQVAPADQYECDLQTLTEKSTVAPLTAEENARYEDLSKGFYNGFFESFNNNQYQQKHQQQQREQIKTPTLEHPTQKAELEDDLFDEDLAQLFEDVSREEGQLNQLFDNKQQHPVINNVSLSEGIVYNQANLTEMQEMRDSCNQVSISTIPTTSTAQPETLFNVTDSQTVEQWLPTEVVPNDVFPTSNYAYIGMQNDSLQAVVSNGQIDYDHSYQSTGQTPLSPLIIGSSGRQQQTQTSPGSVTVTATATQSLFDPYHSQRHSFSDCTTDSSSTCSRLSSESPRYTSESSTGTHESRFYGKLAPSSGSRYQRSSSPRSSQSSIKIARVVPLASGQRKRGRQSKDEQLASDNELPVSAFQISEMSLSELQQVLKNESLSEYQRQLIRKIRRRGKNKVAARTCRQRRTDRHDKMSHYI

[1] = Shn3 3'UTR reporter inhibitors, dose response, cell-based, Clone20 osteoblasts, firefly luciferase, cherry-picked (AID 624132); assay type: functional;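 further: firefly luciferase luminescence from reporter carrying the Shn3 3'UTR in osteoblasts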
[2] = inhibitors of SNCA 5'UTR-driven reporter translation, confirmation, H4 neuroglioma cells, luminescence (AID 1988); assay type: functional, cell-based
[3] = inhibitors of firefly luciferase expression or activity, dose response, H4 neuroglioma cells, luminescence (AID 1990); assay type: functional, cell-based
[4] = Luminescence Cell-Based Dose Retest to Confirm Inhibitors of Cancer Stem Cells. [Related pubchem assays (depositor defined):AID2717, AID2721]; assay type: functional; conditions: Homo sapiens
Cytochrome P450 3A4 = Cytochrome P450 3A4 (Homo sapiens, UniProt P08684);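 further: CYP3A4 tested as one member of a cytochrome P450 panel screen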
[5] = molecular target: T2, Heat shock factor protein 1 (Mus musculus, UniProt P38532); assay: HSF1 potentiators in luciferase reporter cells, confirmation, cell-based, NIH3T3, luminescence, dose retest (AID 435004); assay type: functional;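 further: stress induced by proteasome inhibitor MG132 added 30 min after compound; luciferase reporter driven by HSF1 response element in NIH3T3 cells; actives raise luminescence as potentiators of the MG132 stress response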
T2 sequence (P38532 whole entry): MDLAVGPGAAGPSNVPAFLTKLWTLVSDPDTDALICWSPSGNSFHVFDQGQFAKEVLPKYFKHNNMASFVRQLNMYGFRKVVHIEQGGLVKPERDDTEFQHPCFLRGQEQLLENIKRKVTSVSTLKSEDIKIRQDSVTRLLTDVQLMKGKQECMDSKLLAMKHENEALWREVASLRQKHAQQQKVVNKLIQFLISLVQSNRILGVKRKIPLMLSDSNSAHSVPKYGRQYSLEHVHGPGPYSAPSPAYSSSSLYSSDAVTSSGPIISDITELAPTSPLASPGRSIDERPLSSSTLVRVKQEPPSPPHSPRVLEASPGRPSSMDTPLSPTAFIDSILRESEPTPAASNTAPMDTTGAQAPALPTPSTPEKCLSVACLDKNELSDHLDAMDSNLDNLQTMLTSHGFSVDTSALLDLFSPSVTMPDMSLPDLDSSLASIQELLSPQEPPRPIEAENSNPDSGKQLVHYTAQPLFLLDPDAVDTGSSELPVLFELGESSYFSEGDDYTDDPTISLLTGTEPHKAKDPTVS

[6] = HEp-2 cell cytotoxicity, dose response, cytotoxicity control for RSV inhibitor project, HTS (AID 2410); assay type: functional; conditions: human respiratory syncytial virus
[7] = molecular target: T3, Corticotropin-releasing factor receptor 2/Corticotropin-releasing factor-binding protein (Homo sapiens, UniProt P24387+Q13324); assay: activators of CRF receptor 2 with binding protein – uHTS hits, confirmation (AID 602473); assay type: functional; conditions: read-out: EC50_Mean
T3 sequence (Q13324 whole entry): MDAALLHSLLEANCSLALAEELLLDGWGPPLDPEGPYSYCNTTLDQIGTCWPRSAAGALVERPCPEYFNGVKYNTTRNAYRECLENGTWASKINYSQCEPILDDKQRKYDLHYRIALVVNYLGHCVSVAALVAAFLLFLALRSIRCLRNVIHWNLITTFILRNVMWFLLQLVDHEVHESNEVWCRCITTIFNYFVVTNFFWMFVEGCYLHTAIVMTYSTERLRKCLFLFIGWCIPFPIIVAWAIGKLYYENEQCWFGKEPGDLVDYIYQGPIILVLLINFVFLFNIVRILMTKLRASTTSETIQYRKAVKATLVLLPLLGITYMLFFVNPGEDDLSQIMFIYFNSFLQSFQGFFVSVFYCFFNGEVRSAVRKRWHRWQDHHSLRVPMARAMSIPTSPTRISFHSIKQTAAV
T3 sequence (P24387 whole entry): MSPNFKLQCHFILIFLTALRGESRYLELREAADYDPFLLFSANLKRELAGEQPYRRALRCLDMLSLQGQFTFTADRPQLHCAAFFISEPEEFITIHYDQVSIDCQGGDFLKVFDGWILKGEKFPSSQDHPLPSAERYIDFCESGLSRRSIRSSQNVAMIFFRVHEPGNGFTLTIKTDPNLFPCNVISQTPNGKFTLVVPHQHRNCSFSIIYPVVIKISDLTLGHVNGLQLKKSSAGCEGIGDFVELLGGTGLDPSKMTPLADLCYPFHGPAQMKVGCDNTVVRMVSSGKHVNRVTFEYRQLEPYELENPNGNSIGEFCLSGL

[8] = molecular target: T3, Corticotropin-releasing factor receptor 2/Corticotropin-releasing factor-binding protein; assay: Dose Response confirmation of uHTS hits for small molecule antagonists of the CRF-binding protein and CRF-R2 receptor complex.; assay type: functional; conditions: read-out: IC50_Mean
[9] = Luminescence Cell-Based Dose Response HTS to Identify Inhibitors of 5'UTR Stem-Loop Driven Prion Protein mRNA Translation in H4 Neuroglioblastoma Cells. [Related pubchem assays: 1827 (Project Summary), 1813 (Primary HTS)]; assay type: functional
[10] = molecular target: T2, Heat shock factor protein 1; assay: inhibition of MG132-induced HSE-luciferase signal, confirmation, cell-based, NIH3T3, luminescence, dose retest (AID 2382); assay type: functional;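 further: NIH3T3 fibroblasts with HSF1-driven luciferase reporter stressed by proteasome inhibitor MG132; luminescence from HSF1-driven luciferase expression after 8 hours of MG132 stress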
[11] = molecular target: T4, Calpain-2 catalytic subunit (Sus scrofa, UniProt P43367); assay: pig calpain II inhibitor potency, dose response, biochemical, fluorogenic peptide substrate (AID 1420); assay type: functional
T4 sequence (P43367 whole entry): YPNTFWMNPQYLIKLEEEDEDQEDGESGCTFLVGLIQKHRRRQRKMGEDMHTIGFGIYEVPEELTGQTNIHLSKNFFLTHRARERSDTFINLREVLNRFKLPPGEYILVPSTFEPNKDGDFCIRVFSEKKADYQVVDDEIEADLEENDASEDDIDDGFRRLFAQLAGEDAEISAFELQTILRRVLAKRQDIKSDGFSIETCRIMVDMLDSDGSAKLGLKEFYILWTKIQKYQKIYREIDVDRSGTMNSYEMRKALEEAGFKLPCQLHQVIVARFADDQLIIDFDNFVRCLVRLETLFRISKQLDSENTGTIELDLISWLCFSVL

INS1 = assay: beta cell apoptosis inhibitors, cytokine rescue, dose response, luminescence, retest (AID 449756); assay type: functional, cell-based; conditions: Rattus norvegicus;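 further: cell death triggered by IL-1 beta plus TNF-alpha plus IFN-gamma mixture; protective hits raise ATP signal compared with cytokine alone wells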
[12] = cytotoxicity toward NIH3T3 fibroblasts, dose response, counter-screen, cell-based, ATP luminescence, mouse fibroblasts (AID 2010); assay type: functional;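 further: cells exposed to compound for about 90 hours before reading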
[13] = inhibitors of intracellular T. cruzi replication, confirmation, NIH3T3 host cells, beta-gal luminescence (AID 2044); assay type: functional, cell-based;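 further: intracellular parasites grown in NIH/3T3 mouse fibroblasts as host cells; luminescent beta-galactosidase reporter signal from transgenic T. cruzi replicating inside host cells; inhibitors lower the luminescence signal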
Cytochrome P450 1A2 = molecular target: T5, Cytochrome P450 1A2 (Homo sapiens, UniProt P05177);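 further: PubChem cytochrome P450 panel assay, CYP1A2 panel member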
T5 sequence (P05177 whole entry): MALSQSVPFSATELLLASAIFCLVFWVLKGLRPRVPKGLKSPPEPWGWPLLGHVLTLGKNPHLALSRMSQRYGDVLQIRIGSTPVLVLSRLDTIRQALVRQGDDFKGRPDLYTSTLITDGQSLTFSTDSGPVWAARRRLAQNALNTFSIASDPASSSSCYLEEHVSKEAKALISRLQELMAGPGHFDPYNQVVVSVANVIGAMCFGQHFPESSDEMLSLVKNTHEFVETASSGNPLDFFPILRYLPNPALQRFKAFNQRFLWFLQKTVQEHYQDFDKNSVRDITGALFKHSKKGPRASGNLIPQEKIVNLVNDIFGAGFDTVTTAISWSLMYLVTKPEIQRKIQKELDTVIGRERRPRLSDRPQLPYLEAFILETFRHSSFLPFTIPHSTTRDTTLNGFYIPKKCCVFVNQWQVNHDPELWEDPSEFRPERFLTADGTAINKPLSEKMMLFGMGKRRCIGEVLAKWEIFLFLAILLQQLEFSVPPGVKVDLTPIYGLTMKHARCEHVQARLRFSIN

Cytochrome P450 2C9 = Cytochrome P450 2C9 (Homo sapiens, UniProt P11712)
Chain of Cytochrome P450 2C9 (P11712 whole entry): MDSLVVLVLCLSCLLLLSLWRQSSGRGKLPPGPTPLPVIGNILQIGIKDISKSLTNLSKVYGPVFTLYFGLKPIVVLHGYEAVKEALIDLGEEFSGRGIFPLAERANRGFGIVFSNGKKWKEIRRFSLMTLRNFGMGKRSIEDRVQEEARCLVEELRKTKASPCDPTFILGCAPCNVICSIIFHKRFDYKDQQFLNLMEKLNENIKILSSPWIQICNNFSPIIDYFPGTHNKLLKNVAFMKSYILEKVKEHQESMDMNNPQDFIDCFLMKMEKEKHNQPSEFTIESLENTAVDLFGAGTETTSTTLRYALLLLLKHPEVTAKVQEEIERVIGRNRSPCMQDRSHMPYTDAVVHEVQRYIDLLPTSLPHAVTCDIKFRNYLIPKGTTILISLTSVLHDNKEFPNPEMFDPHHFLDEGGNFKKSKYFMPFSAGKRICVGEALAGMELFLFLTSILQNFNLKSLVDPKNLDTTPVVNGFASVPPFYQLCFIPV

Chain of Cytochrome P450 3A4 (P08684 whole entry): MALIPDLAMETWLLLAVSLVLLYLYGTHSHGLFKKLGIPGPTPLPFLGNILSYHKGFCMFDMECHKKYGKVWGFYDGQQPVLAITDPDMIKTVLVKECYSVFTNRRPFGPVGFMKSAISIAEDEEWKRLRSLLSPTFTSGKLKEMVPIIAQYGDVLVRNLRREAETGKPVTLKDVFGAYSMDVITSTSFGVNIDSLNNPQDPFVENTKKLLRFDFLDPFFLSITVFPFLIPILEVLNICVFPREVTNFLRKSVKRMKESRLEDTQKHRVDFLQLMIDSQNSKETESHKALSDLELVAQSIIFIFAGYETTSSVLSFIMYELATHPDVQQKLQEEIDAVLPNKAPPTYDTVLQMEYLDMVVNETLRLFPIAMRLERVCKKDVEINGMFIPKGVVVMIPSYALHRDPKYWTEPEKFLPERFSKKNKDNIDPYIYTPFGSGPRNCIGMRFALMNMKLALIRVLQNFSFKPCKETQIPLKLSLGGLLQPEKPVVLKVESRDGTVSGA

## CCCOC(=O)c1cc(O)nc2ccccc12
Protein skinhead-1
  IC50: > 100 µM (inactive)

## CCN1CCN(Cc2ccc(NC(=O)c3cc(NC(=O)c4cc5cccc(OC)c5o4)cc(OC)c3)cc2C(F)(F)F)CC1
[1]
  AC50: 10.2 µM (active)

## COc1ccc(NC(=O)c2cccc(N3C(=O)c4ccc(C(=O)Nc5ccc(OC)c(O)c5)cc4C3=O)c2)cc1O
[2]
  EC50: 13.4 µM (active)
[3]
  EC50: 15 µM (active)

## CCOC(=O)CN1CC23C=CC(O2)C(C(=O)NCc2cccs2)C3C1=O (stereo unspecified)
Protein skinhead-1
  IC50: > 100 µM (inactive)

## O=C(Nc1ccc(-c2noc(CCc3ccccc3)n2)cc1)c1ccco1
Protein skinhead-1
  IC50: > 100 µM (inactive)

## Fc1ccccc1/C=C/c1ccc2ccccc2n1
Protein skinhead-1
  IC50: 19.2 µM (active)

## c1ccc(CSc2ncnc3ccccc23)cc1
Protein skinhead-1
  IC50: 36.1 µM (active)

## COC(=O)c1c(NC(=O)c2ccco2)sc2c1CCC2
Protein skinhead-1
  IC50: > 100 µM (inactive)
[4]
  AC50: 68.2 µM (active)
Cytochrome P450 3A4
  AC50: 39.8 µM (inconclusive)

## CCOC(=O)CSc1nc2c(sc3ccc([N+](=O)[O-])cc32)c(=O)n1Cc1ccco1
[5]
  EC50: > 260 µM (inactive)

## O=[N+]([O-])c1cccc2ccc(/C=C/c3ccc(Cl)cc3)nc12
[6]
  CC50: 20 µM (active)
Protein skinhead-1
  IC50: > 100 µM (inactive)

## Cn1cc([C@@H]2C[C@H]3CN(Cc4cccc(Cl)c4)C(=O)[C@]34CCCN24)c2ccccc21
Protein skinhead-1
  IC50: > 100 µM (inactive)

## COc1ccccc1/C=C/c1nc(S(=O)(=O)c2ccccc2)c(N(C)C)o1
[7]
  EC50: > 53 µM (inactive)
[8]
  IC50: < 368 nM (active)

## Cc1cccc(-n2c(SCc3ccc(C#N)cc3)nnc2-c2c[nH]c3ccccc23)c1
[9]
  EC50: > 120 µM (not active)
[2]
  EC50: 25.7 µM (active)
[3]
  EC50: > 120 µM (not active)

## CC1CCCCN1S(=O)(=O)c1ccc(C(=O)Nc2sccc2C(N)=O)cc1 (stereo unspecified)
[6]
  CC50: 19.2 µM (active)
Protein skinhead-1
  IC50: > 100 µM (inactive)
[10]
  EC50: > 195 µM (not active)

## CCCCOC(=O)Nc1ccc(N2CCCCC2)cc1
Protein skinhead-1
  IC50: 10.6 µM (active)

## CCCNC(=O)CCn1nc(-c2ccc(Cl)cc2)c2ccccc2c1=O
[2]
  EC50: > 120 µM (not active)
[3]
  EC50: 18.5 µM (active)

## COc1nc(-c2ccccc2)nnc1-c1ccccc1
Protein skinhead-1
  IC50: 23 µM (active)

## C=C(C)COc1ccc(-c2nc(N)ncc2-c2ccc(OC)c(OC)c2)c(O)c1
[9]
  EC50: > 120 µM (not active)
[2]
  EC50: 15.7 µM (active)
[3]
  EC50: 33.7 µM (active)

## CC1(c2ccc([N+](=O)[O-])cc2)NC(=O)N(CC(=O)c2ccc3c(c2)OCO3)C1=O (stereo unspecified)
[5]
  EC50: > 260 µM (inactive)
[7]
  EC50: 12.1 µM (active)

## O=[N+]([O-])c1ccc(NCc2ccc(Cl)cc2)nc1
[11]
  IC50: 12.6 µM (not active)
Protein skinhead-1
  IC50: 32.1 µM (active)

## CC(Oc1ccc(Cl)cc1)C(=O)OCC(=O)Nc1ncc(Cl)cc1Cl (stereo unspecified)
[5]
  EC50: > 260 µM (inactive)

## CS(=O)(=O)N(CC(=O)Nc1ccc(CC#N)cc1)c1ccc(C23CC4CC(CC(C4)C2)C3)cc1
[5]
  EC50: > 260 µM (inactive)
INS1
  AC50: 6.44 µM (active)
[12]
  EC50: > 60 µM (not active)
[13]
  EC50: 2.35 µM (active)

## CC(C)CC(=O)Nc1ccc(N2CCOCC2)cc1
[5]
  EC50: > 260 µM (inactive)

## COc1cc(NC(=O)c2cc3ccccc3o2)c(OC)cc1Br
Cytochrome P450 1A2
  AC50: 2.24 µM (inconclusive)
[9]
  EC50: > 120 µM (not active)
Cytochrome P450 2C9
  AC50: 112 nM (inconclusive)
[2]
  EC50: 14.7 µM (active)
Cytochrome P450 3A4
  AC50: 10 µM (inconclusive)

## Cc1ccc(OCC(=O)N2N=C(C(F)(F)F)CC2(O)C(C)(C)C)cc1C (stereo unspecified)
[9]
  EC50: 21.8 µM (active)
[2]
  EC50: 33.1 µM (active)
[3]
  EC50: 102 µM (active)

## COc1cccc(C(=O)OCC(=O)NCCC2=CCCCC2)c1
[7]
  EC50: > 53 µM (inactive)
[8]
  IC50: > 47100 nM (inactive)

## CCCNC(=O)c1c(CSc2ccc(Cl)cc2)noc1C(=O)NCc1ccccc1
[5]
  EC50: > 260 µM (inactive)

## COc1ccc(CNC(=O)CN(Cc2ccccc2)C(=O)CCC(=O)Nc2nccs2)cc1
[5]
  EC50: > 260 µM (inactive)

## CCOc1ccc(S(=O)(=O)N2CN(c3cccc(C(C)=O)c3)c3nc4ccccc4nc32)cc1
[7]
  EC50: > 53 µM (inactive)
[8]
  IC50: < 368 nM (active)

## CCOc1cc(/C=N\NC(=O)C2C(=O)NCC2c2ccccc2)ccc1OC (stereo unspecified)
[9]
  EC50: > 120 µM (not active)
[2]
  EC50: > 120 µM (not active)
[7]
  EC50: 5.59 µM (active)
[3]
  EC50: > 120 µM (not active)

## Cc1cccc(C)c1/N=C1\SC(CC(=O)Nc2c(C)cccc2C)C(=O)N1CCc1ccccn1 (stereo unspecified)
[9]
  EC50: 0.46 µM (active)
[2]
  EC50: 95.8 µM (active)
[3]
  EC50: 10.2 µM (active)
